Measured values as given in the NIST ThermoML archive (doi:10.1016/j.jct.2008.06.009).

Assay: xn = mol fraction of the nth substance listed
Details: Liquid, Bellows volumetry

N [ammonia] + O
mass density [kg/m3]
Details | x1 = 0.1048 | x1 = 0.2046 | x1 = 0.3807 | x1 = 0.5565 | x1 = 0.7008 | x1 = 0.801 | x1 = 0.9102 | x1 = 1
450 K, 10000 kPa | 843.9 | 796.9 | 708.1 | 608.5 | – | – | – | –
450 K, 20000 kPa | 850.4 | 804.3 | 718.8 | 625.9 | 534.7 | 458.5 | – | –
450 K, 30000 kPa | 856.6 | 811 | 728.1 | 639.8 | 557.7 | 495.6 | 422 | 355.3
450 K, 40000 kPa | 862.7 | 817.8 | 736.8 | 651.6 | 575.2 | 519.2 | 457.5 | 403.7
450 K, 50000 kPa | 868.5 | 823.8 | 744.9 | 662.2 | 589.4 | 537.4 | 481.3 | 433.4
450 K, 60000 kPa | 873.9 | 829.6 | 751.5 | 671.3 | 601.8 | 552.2 | 499.7 | 455.2
450 K, 70000 kPa | 879.1 | 835.4 | 758.3 | 680.1 | 612.5 | 564.9 | 514.8 | 472.6
450 K, 80000 kPa | 884.2 | 840.9 | 765.1 | 687.8 | 622.2 | 576 | 527.7 | 487.4
450 K, 90000 kPa | 889.2 | 845.9 | 771.1 | 695.3 | 631.2 | 586.2 | 539.1 | 500.2
450 K, 100000 kPa | 893.9 | 850.6 | 777.1 | 702.2 | 639.2 | 595.2 | 549.2 | 511.7
450 K, 120000 kPa | 902.7 | 860.3 | 788.1 | 714.8 | 654 | 611.5 | 566.9 | 531.4
450 K, 140000 kPa | 911.3 | 868.9 | 798.6 | 726.2 | 666.9 | 625.9 | 582.2 | 548.2
450 K, 160000 kPa | 919.5 | 877.1 | 807.9 | 736.6 | 678.7 | 638.7 | 595.6 | 563.1
450 K, 180000 kPa | 927 | 885.1 | 817.2 | 746.2 | 689.4 | 650.1 | 607.8 | 576.3
450 K, 200000 kPa | 934.3 | 892.2 | 825.3 | 755.2 | 699.3 | 660.9 | 618.7 | 588.2
500 K, 10000 kPa | 782.5 | 728.2 | – | – | – | – | – | –
500 K, 20000 kPa | 792.5 | 740.4 | 641.7 | 517 | – | – | – | –
500 K, 30000 kPa | 801.3 | 751.1 | 658.5 | 551.1 | 447.5 | – | – | –
500 K, 40000 kPa | 809.6 | 760.6 | 672.4 | 574 | 487.8 | 422 | – | –
500 K, 50000 kPa | 817.3 | 769.5 | 684.3 | 591.7 | 514.1 | 456.2 | – | 350.9
500 K, 60000 kPa | 824.3 | 777.5 | 695.3 | 606.4 | 534.1 | 480.7 | 426.9 | 384.9
500 K, 70000 kPa | 831.3 | 785.1 | 704.8 | 619 | 550.6 | 499.8 | 450 | 410.1
500 K, 80000 kPa | 837.7 | 792.1 | 713.9 | 630.1 | 564.5 | 515.8 | 468.5 | 430.2
500 K, 90000 kPa | 843.7 | 798.6 | 721.8 | 640.2 | 576.7 | 529.6 | 484.1 | 446.9
500 K, 100000 kPa | 849.7 | 805 | 729.7 | 649.4 | 587.6 | 541.6 | 497.6 | 461.5
500 K, 120000 kPa | 860.7 | 816.7 | 743.7 | 665.7 | 606.7 | 562.5 | 520.1 | 485.8
500 K, 140000 kPa | 870.8 | 827.5 | 756.6 | 679.9 | 623.1 | 580.1 | 538.9 | 505.9
500 K, 160000 kPa | 880.6 | 837.4 | 768.3 | 692.9 | 637.4 | 595.3 | 555 | 523.1
500 K, 180000 kPa | 889.4 | 846.7 | 779.3 | 704.5 | 650.4 | 608.9 | 569.2 | 538.3
500 K, 200000 kPa | 897.9 | 855.4 | 789.2 | 715 | 662.1 | 621.2 | 581.9 | 551.9
